Data as given in patent US9399636B2, “Substituted dipyridylamines and uses thereof” (Genentech, Inc., priority 2012, dated 2016).

Target: T1, DLK (Homo sapiens, UniProt Q12852)
T1 construct: N-terminally GST-tagged DLK (catalytic domain amino acid 1-520) (Carna Bioscience); GST (N); purchased Carna Bioscience
T1 sequence (Q12852 1-520): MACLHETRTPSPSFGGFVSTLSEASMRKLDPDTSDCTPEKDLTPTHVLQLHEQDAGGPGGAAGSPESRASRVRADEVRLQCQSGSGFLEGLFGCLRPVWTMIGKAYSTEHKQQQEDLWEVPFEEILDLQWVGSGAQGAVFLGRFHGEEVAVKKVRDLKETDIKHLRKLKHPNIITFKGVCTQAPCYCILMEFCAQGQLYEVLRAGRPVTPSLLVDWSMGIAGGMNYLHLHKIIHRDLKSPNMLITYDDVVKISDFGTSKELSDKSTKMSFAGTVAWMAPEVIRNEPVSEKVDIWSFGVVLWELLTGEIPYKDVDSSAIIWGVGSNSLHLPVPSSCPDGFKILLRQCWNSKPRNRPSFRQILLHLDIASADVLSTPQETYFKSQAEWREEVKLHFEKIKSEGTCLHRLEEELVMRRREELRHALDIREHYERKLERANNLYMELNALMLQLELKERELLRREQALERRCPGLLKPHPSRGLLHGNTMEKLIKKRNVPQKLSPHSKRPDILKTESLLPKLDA
Assay: DLK TR-FRET assay
Assay type: biochemical
Conditions: 5 nM GST-tagged DLK (catalytic domain amino acid 1-520), 40 nM HIS-tagged MKK4 K131M substrate, 30 μM ATP, 60 minutes
Summary of the method: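 Phosphorylation of HIS-tagged MKK4 K131M (40 nM) by GST-DLK aa 1-520 (5 nM) at 30 μM ATP, pH 7.5, run 60 min at ambient temperature. Compound series started at 20 uM, diluted 1:3. Phospho-MKK4 detected by TR-FRET (Eu cryptate/D2 antibodies, 3 h, EDTA-containing buffer).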

Row | Ki | SMILES
1 | 13 nM | N#Cc1ccnc(Nc2cc(C3(C#N)CCOCC3)cc(N3CCC3)n2)c1 [Example 75, 2-[6-Azetidin-1-yl-4-(4-cyano-tetrahydro-pyran-4-yl)-pyridin-2-ylamino]-isonicotinonitrile]
2 | 19 nM | N#CC1(c2cc(Nc3cc(C(F)F)ccn3)nc(N3CCCC3=O)c2)CCOCC1 [Example 49, 4-[2-(4-Difluoromethyl-pyridin-2-ylamino)-6-(2-oxo-pyrrolidin-1-yl)-pyridin-4-yl]-tetrahydro-pyran-4-carbonitrile]
3 | 11.9 nM | N#Cc1ccnc(Nc2cc(C3CCOCC3)cc(N3CC(F)C3)n2)c1 [Example 86, 2-[6-(3-Fluoro-azetidin-1-yl)-4-(tetrahydro-pyran-4-yl)-pyridin-2-ylamino]-isonicotinonitrile]
4 | 2.1 nM | N#CC1(c2cc(Nc3cc(C(F)F)ccn3)nc(N3CCC(F)(F)C3)c2)CCOCC1 [Example 56, 4-[2-(4-Difluoromethyl-pyridin-2-ylamino)-6-(3,3-difluoro-pyrrolidin-1-yl)-pyridin-4-yl]-tetrahydro-pyran-4-carbonitrile]
5 | 88 nM | N#Cc1ccnc(Nc2cc(C3CCOCC3)cc(N3CC4(CCOC4)C3)n2)c1 [Example 102, 2-[6-(6-Oxa-2-aza-spiro[3.4]oct-2-yl)-4-(tetrahydro-pyran-4-yl)-pyridin-2-ylamino]-isonicotinonitrile]
6 | 220 nM | Cc1cc(C2=CCOCC2)cc(Nc2cc(C#N)ccn2)n1 [Example 112, 2-[4-(3,6-Dihydro-2H-pyran-4-yl)-6-methyl-pyridin-2-ylamino]-isonicotinonitrile]
7 | 2 nM | N#CC1(c2cc(Nc3cc(C(F)F)ccn3)nc(N3CC4CC4C3)c2)CCOCC1 (stereo not shown) [Example 52, 4-[2-(3-Aza-bicyclo[3.1.0]hex-3-yl)-6-(4-difluoromethyl-pyridin-2-ylamino)-pyridin-4-yl]-tetrahydro-pyran-4-carbonitrile]
8 | 40 nM | N#Cc1ccnc(Nc2cc(C3(C#N)CCOCC3)cc(N3CCCC3=O)n2)c1 [Example 47, 2-[4-(4-Cyano-tetrahydro-pyran-4-yl)-6-(2-oxo-pyrrolidin-1-yl)-pyridin-2-ylamino]-isonicotinonitrile]
9 | 190 nM | N#Cc1ccnc(Nc2cc(C3(C#N)CCOCC3)cc(Cl)n2)c1 [Example 77, 2-[6-Chloro-4-(4-cyano-tetrahydro-pyran-4-yl)-pyridin-2-ylamino]-isonicotinonitrile]
10 | 0.17 nM | N#Cc1ccnc(Nc2cc(C3(C#N)CCNCC3)cc(N3CC4CC4C3)n2)c1 (stereo not shown) [Example 40, 6′-(3-Aza-bicyclo[3.1.0]hex-3-yl)-2′-(4-cyano-pyridin-2-ylamino)-2,3,5,6-tetrahydro-1H-[4,4′]bipyridinyl-4-carbonitrile]
11 | 3.1 nM | N#Cc1ccnc(Nc2cc(C3CCOCC3)cc(Cl)n2)c1 [Example 78, 2-[6-Chloro-4-(tetrahydro-pyran-4-yl)-pyridin-2-ylamino]-isonicotinonitrile]

More lines, now with the values behind:

Row | SMILES | Ki
12 | FC1(F)CCN(c2cc(C3CN(C4COC4)C3)cc(Nc3cc(C(F)(F)F)ccn3)n2)C1 [Example 117, [6-(3,3-Difluoro-pyrrolidin-1-yl)-4-(1-oxetan-3-yl-azetidin-3-yl)-pyridin-2-yl]-(4-trifluoromethyl-pyridin-2-yl)-amine] | 0.94 nM
13 | CC(=O)N1CCC(c2cc(Nc3cc(C4CC4)ccn3)nc(N3CCC[C@H]3C)c2)CC1 [Example 142, 1-[6′-(4-Cyclopropyl-pyridin-2-ylamino)-2′-((R)-2-methyl-pyrrolidin-1-yl)-3,4,5,6-tetrahydro-2H-[4,4′]bipyridinyl-1-yl]-ethanone] | 22 nM
14 | CS(=O)(=O)N1CC(c2cc(Nc3cc(C(F)(F)F)ccn3)nc(N3CCC(F)(F)C3)c2)C1 [Example 126, [6-(3,3-Difluoro-pyrrolidin-1-yl)-4-(1-methanesulfonyl-azetidin-3-yl)-pyridin-2-yl]-(4-trifluoromethyl-pyridin-2-yl)-amine] | 6.6 nM
15 | Cc1cc(C2CCN(C3COC3)CC2)cc(Nc2cc(C#N)ccn2)n1 [Example 110, 2-(6-Methyl-1′-oxetan-3-yl-1′,2′,3′,4′,5′,6′-hexahydro-[4,4′]bipyridinyl-2-ylamino)-isonicotinonitrile] | 93 nM
16 | N#Cc1ccnc(Nc2cc(C3CCN(C4COC4)CC3)cc(N3CC(F)C3)n2)c1 [Example 91, 2-[6-(3-Fluoro-azetidin-1-yl)-1′-oxetan-3-yl-1′,2′,3′,4′,5′,6′-hexahydro-[4,4′]bipyridinyl-2-ylamino]-isonicotinonitrile] | 6.7 nM
17 | C[C@@H]1CCCN1c1cc(C2CCOCC2)cc(Nc2cc(C(F)(F)F)ccn2)n1 [Example 125, [6-((R)-2-Methyl-pyrrolidin-1-yl)-4-(tetrahydro-pyran-4-yl)-pyridin-2-yl]-(4-trifluoromethyl-pyridin-2-yl)-amine] | 3.1 nM
18 | N#Cc1ccnc(Nc2cc(C3CCN(C4COC4)CC3)cc(N3CC(F)(F)C3)n2)c1 [Example 89, 2-[6-(3,3-Difluoro-azetidin-1-yl)-1′-oxetan-3-yl-1′,2′,3′,4′,5′,6′-hexahydro-[4,4′]bipyridinyl-2-ylamino]-isonicotinonitrile] | 8 nM
19 | CCc1cc(C2CCN(C(C)=O)CC2)cc(Nc2cc(C(F)F)ccn2)n1 [Example 58, 1-[2′-(4-Difluoromethyl-pyridin-2-ylamino)-6′-ethyl-3,4,5,6-tetrahydro-2H-[4,4′]bipyridinyl-1-yl]-ethanone] | 64 nM
20 | COC1CN(c2cc(C3CCN(C4COC4)CC3)cc(Nc3cc(C(F)F)ccn3)n2)C1 [Example 48, (4-Difluoromethyl-pyridin-2-yl)-[6-(3-methoxy-azetidin-1-yl)-1′-oxetan-3-yl-1′,2′,3′,4′,5′,6′-hexahydro-[4,4′]bipyridinyl-2-yl]-amine] | 21 nM
21 | FC(F)c1ccnc(Nc2cc(C3CCN(C4COC4)CC3)cc(N3CCC(F)(F)C3)n2)c1 [Example 71, (4-Difluoromethyl-pyridin-2-yl)-[6-(3,3-difluoro-pyrrolidin-1-yl)-1′-oxetan-3-yl-1′,2′,3′,4′,5′,6′-hexahydro-[4,4′]bipyridinyl-2-yl]-amine] | 0.36 nM
22 | CCCCOc1cc(C2CCN(C3COC3)CC2)cc(Nc2cc(C(F)F)ccn2)n1 [Example 43, (6-Butoxy-1′-oxetan-3-yl-1′,2′,3′,4′,5′,6′-hexahydro-[4,4′]bipyridinyl-2-yl)-(4-difluoro-methyl-pyridin-2-yl)-amine] | 3.8 nM
23 | CN1CCCC(c2cc(Nc3cc(C(F)(F)F)ccn3)nc(N3CCC(F)(F)C3)c2)C1 (stereo not shown) [Example 138, [6′-(3,3-Difluoro-pyrrolidin-1-yl)-1-methyl-1,2,3,4,5,6-hexahydro-[3,4′]bipyridinyl-2′-yl]-(4-trifluoromethyl-pyridin-2-yl)-amine] | 0.17 nM
24 | N#Cc1ccnc(Nc2cc(C3CCN(C4COC4)CC3)cc(N3CC4(CCOC4)C3)n2)c1 [Example 93, 2-[6-(6-Oxa-2-aza-spiro[3.4]oct-2-yl)-1′-oxetan-3-yl-1′,2′,3′,4′,5′,6′-hexahydro-[4,4′]bipyridinyl-2-ylamino]-isonicotinonitrile] | 20 nM
25 | N#Cc1ccnc(Nc2cc(C3CCOCC3)cc(N3CC4CC3C4)n2)c1 [Example 81, 2-[6-(2-Aza-bicyclo[2.1.1]hex-2-yl)-4-(tetrahydro-pyran-4-yl)-pyridin-2-ylamino]-isonicotinonitrile] | 11.4 nM
26 | Cc1cc(C2CCN(C3COC3)CC2)cc(Nc2cc(C(F)F)ccn2)n1 [Example 27, (4-Difluoromethyl-pyridin-2-yl)-(6-methyl-1′-oxetan-3-yl-1′,2′,3′,4′,5′,6′-hexahydro-[4,4′]bipyridinyl-2-yl)-amine] | 100 nM
27 | N#Cc1ccnc(Nc2cc(C3CCOCC3)cc(N3CC4(COC4)C3)n2)c1 [Example 82, 2-[6-(2-Oxa-6-aza-spiro[3.3]hept-6-yl)-4-(tetrahydro-pyran-4-yl)-pyridin-2-ylamino]-isonicotinonitrile] | 100 nM
28 | FC(F)c1ccnc(Nc2cc(C3CCN(C4COC4)CC3)cc(N3CC4CC4C3)n2)c1 (stereo not shown) [Example 50, [6-(3-Aza-bicyclo[3.1.0]hex-3-yl)-1′-oxetan-3-yl-1′,2′,3′,4′,5′,6′-hexahydro-[4,4′]bipyridinyl-2-yl]-(4-difluoromethyl-pyridin-2-yl)-amine] | 1 nM
29 | FC(F)c1ccnc(Nc2cc(C3CCN(C4COC4)CC3)cc(N3CCC3)n2)c1 [Example 51, (6-Azetidin-1-yl-1′-oxetan-3-yl-1′,2′,3′,4′,5′,6′-hexahydro-[4,4′]bipyridinyl-2-yl)-(4-difluoromethyl-pyridin-2-yl)-amine] | 2.4 nM
30 | CC(=O)N1CCC(c2cc(Nc3cc(C(F)(F)F)ccn3)nc(N3CCC[C@H]3C)c2)CC1 [Example 141, 1-[2′-((R)-2-Methyl-pyrrolidin-1-yl)-6′-(4-trifluoromethyl-pyridin-2-ylamino)-3,4,5,6-tetrahydro-2H-[4,4′]bipyridinyl-1-yl]-ethanone] | 2 nM
31 | Cc1cc(C2CCN(C(=O)OC(C)(C)C)CC2)cc(Nc2cc(C#N)ccn2)n1 [Example 116, 2′-(4-Cyano-pyridin-2-ylamino)-6′-methyl-3,4,5,6-tetrahydro-2H-[4,4′]bipyridinyl-1-carboxylic acid tert-butyl ester] | 215 nM
